“And” between values parts separate entries of the source, which are not always exact repeats. Equal entries are not always repeated. Inconclusive results and toxic doses are left out.
Tested on: P388 leukemia ip, CD2F1 mice, survival T/C
Experiment: NCI In Vivo Anticancer Drug Screen. Data for tumor model P388 Leukemia (intraperitoneal) in CD2F1 (CDF1) mice
Settings: endpoint: median survival time, higher = longer survival
How it was run: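 Mice carrying the transplanted tumor received test compound or vehicle. Survival was recorded in each group, and the value is the treated-group measurement divided by that of the vehicle-treated control group.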

[1] = dose: 50.0 mg/kg/injection, schedule: Q01DX009 (ip), vehicle: Klucel (hydroxypropylcellulose) (HPC)
[2] = dose: 100.0 mg/kg/injection, schedule: Q01DX009 (ip), vehicle: Klucel (hydroxypropylcellulose) (HPC)
[3] = dose: 200.0 mg/kg/injection, schedule: Q01DX009 (ip), vehicle: Klucel (hydroxypropylcellulose) (HPC)
[4] = dose: 100.0 mg/kg/injection, schedule: Q01DX001 (ip), vehicle: saline with Tween-80
[5] = dose: 200.0 mg/kg/injection, schedule: Q01DX001 (ip), vehicle: saline with Tween-80
[6] = dose: 400.0 mg/kg/injection, schedule: Q01DX001 (ip), vehicle: saline with Tween-80
[7] = dose: 50.0 mg/kg/injection, schedule: Q01DX005 (ip), vehicle: Klucel (hydroxypropylcellulose) (HPC)
[8] = dose: 100.0 mg/kg/injection, schedule: Q01DX005 (ip), vehicle: Klucel (hydroxypropylcellulose) (HPC)
[9] = dose: 100.0 mg/kg/injection, schedule: Q04DX002 (ip), vehicle: Klucel (hydroxypropylcellulose) (HPC)
[10] = dose: 200.0 mg/kg/injection, schedule: Q01DX005 (ip), vehicle: Klucel (hydroxypropylcellulose) (HPC)
[11] = dose: 60.0 mg/kg/injection, schedule: Q01DX005 (ip), vehicle: saline with Tween-80
[12] = dose: 120.0 mg/kg/injection, schedule: Q01DX005 (ip), vehicle: saline with Tween-80
[13] = dose: 240.0 mg/kg/injection, schedule: Q01DX005 (ip), vehicle: saline with Tween-80
[14] = dose: 30.0 mg/kg/injection, schedule: Q01DX005 (ip), vehicle: Klucel (hydroxypropylcellulose) (HPC)
[15] = dose: 25.0 mg/kg/injection, schedule: Q01DX009 (ip), vehicle: saline
[16] = dose: 50.0 mg/kg/injection, schedule: Q01DX009 (ip), vehicle: saline
[17] = dose: 60.0 mg/kg/injection, schedule: Q01DX005 (ip), vehicle: Klucel (hydroxypropylcellulose) (HPC)
[18] = dose: 120.0 mg/kg/injection, schedule: Q01DX005 (ip), vehicle: Klucel (hydroxypropylcellulose) (HPC)
[19] = dose: 240.0 mg/kg/injection, schedule: Q01DX005 (ip), vehicle: Klucel (hydroxypropylcellulose) (HPC)

In the case of Nc1ncnc(Nc2ccc(S(N)(=O)=O)cc2)n1, the T/C (dose: 5.0 mg/kg/injection, schedule: Q01DX009 (ip), vehicle: Klucel (hydroxypropylcellulose) (HPC)) was 100 % of control, the T/C (dose: 10.0 mg/kg/injection, schedule: Q01DX009 (ip), vehicle: Klucel (hydroxypropylcellulose) (HPC)) was 97 % of control and the T/C (dose: 20.0 mg/kg/injection, schedule: Q01DX009 (ip), vehicle: Klucel (hydroxypropylcellulose) (HPC)) was 100 % of control.

In the case of Cc1ccc(C)c(NC(=O)Nc2ccc(CCO)cc2)c1, the T/C [1] was 102 % of control, the T/C [2] was 102 % of control and the T/C [3] was 99 % of control.

With CCCN(CCC)C(=O)CN(C=O)c1ncc([N+](=O)[O-])s1 the T/C (dose: 25.0 mg/kg/injection, schedule: Q01DX001 (ip), vehicle: saline) was 104 % of control, the T/C (dose: 50.0 mg/kg/injection, schedule: Q01DX001 (ip), vehicle: saline) was 108 % of control and the T/C (dose: 100.0 mg/kg/injection, schedule: Q01DX001 (ip), vehicle: saline) was 107 % of control.

COC(=O)Cn1/c(=N\N=C\c2ccc(C)cc2)sc2ccccc21 was tested, and the T/C [4] was 91 % of control, the T/C [5] was 91 % of control and the T/C [6] was 89 % of control.

O=C(O)Cc1c(-c2ccccc2)n[nH]c1-c1[nH]nc(-c2ccccc2)c1CC(=O)O was tested, and the T/C (dose: 60.0 mg/kg/injection, schedule: Q01DX005 (ip), vehicle: saline) was 95 % of control, the T/C (dose: 120.0 mg/kg/injection, schedule: Q01DX005 (ip), vehicle: saline) was 95 % of control and the T/C (dose: 240.0 mg/kg/injection, schedule: Q01DX005 (ip), vehicle: saline) was 104 % of control.

c1ccc(OP2(Oc3ccccc3)=NP(Oc3ccccc3)(Oc3ccccc3)=NP(Oc3ccccc3)(Oc3ccccc3)=NP(Oc3ccccc3)(Oc3ccccc3)=N2)cc1 was tested, and the T/C [7] was 97 % of control and the T/C [8] was 91 % of control.

In the case of CCOc1nc(N)c(C(=O)c2sc(OCC)nc2N)s1, the T/C [4] was 107 % of control, the T/C [5] was 99 % of control and the T/C [6] was 92 % of control.

For FC(F)(F)C1(C(F)(F)F)O[Si]2(OC(C(F)(F)F)(C(F)(F)F)c3ccccc32)c2ccccc21 (tested in a mixture with another compound), the T/C (dose: 25.0 mg/kg/injection, schedule: Q04DX002 (ip), vehicle: Klucel (hydroxypropylcellulose) (HPC)) was 109 % of control, the T/C (dose: 50.0 mg/kg/injection, schedule: Q04DX002 (ip), vehicle: Klucel (hydroxypropylcellulose) (HPC)) was 94 % of control and the T/C [9] was 100 % of control and 102 % of control.

For Cc1nnc2c([Se])nccn12, the T/C [4] was 99 % of control and the T/C [5] was 93 % of control.

With CC(=O)N1C(CO)C(O)C(O)C1n1cnc2c(N)ncnc21 (centres undefined) the T/C [7] was 95 % of control, the T/C [8] was 100 % of control and the T/C [10] was 100 % of control. The T/C (dose: 300.0 mg/kg/injection, schedule: Q01DX005 (ip), vehicle: Klucel (hydroxypropylcellulose) (HPC)) was 100 % of control.

C[Si](C)(C)C#CC(C(O)c1ccccc1)N1CCCC1 (centres undefined) was tested, and the T/C (dose: 100.0 mg/kg/injection, schedule: Q04DX003 (ip), vehicle: saline) was 94 % of control, the T/C (dose: 200.0 mg/kg/injection, schedule: Q04DX003 (ip), vehicle: saline) was 92 % of control and the T/C (dose: 400.0 mg/kg/injection, schedule: Q04DX003 (ip), vehicle: saline) was 101 % of control.

In the case of COC(=O)c1nc(=S)[nH]c(C(=O)OC)c1C(=O)c1ccc(C)cc1, the T/C [11] was 106 % of control, the T/C [12] was 100 % of control and the T/C [13] was 100 % of control.

In the case of O=C1SC(Nc2ccccc2)/C(=N\N=C2/C(Nc3ccccc3)SC(=O)N2Cc2ccccc2)N1Cc1ccccc1 (centres undefined), the T/C [9] was 86 % of control, the T/C (dose: 200.0 mg/kg/injection, schedule: Q04DX002 (ip), vehicle: Klucel (hydroxypropylcellulose) (HPC)) was 94 % of control and the T/C (dose: 400.0 mg/kg/injection, schedule: Q04DX002 (ip), vehicle: Klucel (hydroxypropylcellulose) (HPC)) was 91 % of control.

For CCCCCCC(C)N=[N+]([O-])CBr (centres undefined), the T/C (dose: 100.0 mg/kg/injection, schedule: Q01DX001 (ip), vehicle: other) was 114 % of control, the T/C (dose: 200.0 mg/kg/injection, schedule: Q01DX001 (ip), vehicle: other) was 111 % of control and the T/C (dose: 400.0 mg/kg/injection, schedule: Q01DX001 (ip), vehicle: other) was 103 % of control.

In the case of CCCCCCCC(=S)SCCCC(=O)O, the T/C [1] was 100 % of control, the T/C [2] was 100 % of control and the T/C [3] was 99 % of control.

NC(=O)CCC1CC(=O)c2ccccc2C1 (centres undefined) was tested, and the T/C (dose: 100.0 mg/kg/injection, schedule: Q01DX001 (ip), vehicle: Klucel (hydroxypropylcellulose) (HPC)) was 94 % of control, the T/C (dose: 200.0 mg/kg/injection, schedule: Q01DX001 (ip), vehicle: Klucel (hydroxypropylcellulose) (HPC)) was 108 % of control and the T/C (dose: 400.0 mg/kg/injection, schedule: Q01DX001 (ip), vehicle: Klucel (hydroxypropylcellulose) (HPC)) was 92 % of control.

In the case of Cc1cc([N+](=O)[O-])c(C)cc1Cl, the T/C (dose: 37.5 mg/kg/injection, schedule: Q04DX003 (ip), vehicle: saline sonified) was 118 % of control, the T/C (dose: 75.0 mg/kg/injection, schedule: Q04DX003 (ip), vehicle: saline sonified) was 100 % of control and the T/C (dose: 150.0 mg/kg/injection, schedule: Q04DX003 (ip), vehicle: saline sonified) was 118 % of control.

NC(=O)C1=CC2C3C=CC2(O)C(=O)OC3O1 (centres undefined) was tested, and the T/C (dose: 7.5 mg/kg/injection, schedule: Q01DX005 (ip), vehicle: Klucel (hydroxypropylcellulose) (HPC)) was 114 % of control and 119 % of control and the T/C [14] was 158 % of control.

For O=C(O)CCCCCCCCCCNC(=O)CI, the T/C (dose: 6.25 mg/kg/injection, schedule: Q01DX009 (ip), vehicle: Klucel (hydroxypropylcellulose) (HPC)) was 107 % of control, the T/C (dose: 12.5 mg/kg/injection, schedule: Q01DX009 (ip), vehicle: Klucel (hydroxypropylcellulose) (HPC)) was 119 % of control and the T/C (dose: 25.0 mg/kg/injection, schedule: Q01DX009 (ip), vehicle: Klucel (hydroxypropylcellulose) (HPC)) was 119 % of control.

With CC1CCC(C)N1P(=O)(N1CC1)N1CC1 (centres undefined) the T/C (dose: 6.25 mg/kg/injection, schedule: Q04DX003 (ip), vehicle: saline) was 108 % of control, the T/C (dose: 12.5 mg/kg/injection, schedule: Q01DX009 (ip), vehicle: saline) was 110 % of control and the T/C [15] was 90 % of control. For the same compound, the T/C (dose: 25.0 mg/kg/injection, schedule: Q04DX003 (ip), vehicle: saline) was 160 % of control and 200 % of control and the T/C (dose: 50.0 mg/kg/injection, schedule: Q04DX003 (ip), vehicle: saline) was 155 % of control.

For CCCCCCCCS(=O)(=O)NC, the T/C [15] was 117 % of control, the T/C [16] was 102 % of control and the T/C (dose: 200.0 mg/kg/injection, schedule: Q01DX009 (ip), vehicle: saline) was 102 % of control.

With S=c1nc(-c2nc(=S)[nH]c3c2CCCCCCCCCC3)c2c([nH]1)CCCCCCCCCC2 the T/C [17] was 99 % of control, the T/C [18] was 92 % of control and the T/C [19] was 93 % of control.

COc1ccccc1C1OC(N)=C(O)C1=O (centres undefined) was tested, and the T/C [17] was 97 % of control, the T/C [18] was 103 % of control and the T/C [19] was 104 % of control.

For CC1C2=C(CCCC2=O)O/C1=N\O (centres undefined), the T/C (dose: 100.0 mg/kg/injection, schedule: Q04DX003 (ip), vehicle: Klucel (hydroxypropylcellulose) (HPC)) was 96 % of control, the T/C (dose: 200.0 mg/kg/injection, schedule: Q04DX003 (ip), vehicle: Klucel (hydroxypropylcellulose) (HPC)) was 90 % of control and the T/C (dose: 400.0 mg/kg/injection, schedule: Q04DX003 (ip), vehicle: Klucel (hydroxypropylcellulose) (HPC)) was 93 % of control.

For CC[C@@]1(C(N)=O)CC2C=CC1C2 (some centres undefined), the T/C [7] was 94 % of control, the T/C [8] was 90 % of control and the T/C [10] was 96 % of control.

C(=C\c1ccccn1)/c1ccc(/C=C/c2ccccn2)cc1 was tested, and the T/C [11] was 98 % of control, the T/C [12] was 103 % of control and the T/C [13] was 97 % of control.

In the case of C[CH2][GeH][CH2]C.C[CH2][Ge]([CH2]C)[CH2]C, the T/C [16] was 93 % of control and the T/C (dose: 100.0 mg/kg/injection, schedule: Q01DX009 (ip), vehicle: saline) was 90 % of control.

For CCC(C)/C(=C\C#N)NCCCCCCN/C(=C/C#N)C(C)CC (centres undefined), the T/C (dose: 15.0 mg/kg/injection, schedule: Q01DX005 (ip), vehicle: Klucel (hydroxypropylcellulose) (HPC)) was 95 % of control, the T/C [14] was 86 % of control and the T/C [17] was 90 % of control. The T/C [19] was 91 % of control.

From PubChem BioAssay AID330 (DTP/NCI, 2004)
